In patent US5763464A, “Retroviral agents containing anthranilamide, substituted benzamide and other subunits, and methods of using same” (The United States of America as represented by the …, priority 1995, dated 1998):
Where two headings read alike, the source gives them in different places.

Columns and labels:
CEM cells = test: Toxicity (IC50) in CEM cells, soluble formazan assay; conditions: Homo sapiens, CCRF-CEM
[1] = test system: HIV-1 (CEM cells chronically infected with HIV-1); test: Anti-retroviral activity in CEM cells chronically infected with HIV-1, soluble formazan assay; type: cell-based; conditions: Human immunodeficiency virus 1, CCRF-CEM
Experimental: Using the soluble formazan assay described by Weislow et al. (J. Nat'l. Cancer Inst., 81, 577-586 (1989)), CEM cells chronically infected with HIV-1 were used to assay the anti-retroviral activity of test compounds described herein. The concentration of compound that inhibits 50% of viral activity (EC50; determined as described in Weislow et al. (1989), supra) and the inhibition constant (Ki, as defined in Example 7) for the compound were determined.

[2] = target: T1, HIV-1 protease (wild-type, WT) (Human immunodeficiency virus type 1 group M subtype B, UniProt P04585); test: biochemical
T1 construct: purified HIV-1 protease (wild-type, WT)
Experimental: The inhibition constants (Ki) for the compounds of the above examples were determined using purified HIV-1 protease (wild-type, WT) (Tables I, II and III). Ki is an inhibition constant of a given compound as derived by enzyme kinetics. A low Ki represents a high affinity of the compound for the enzyme, i.e., tight binding or low dissociation. Inhibition of the cleavage was assayed using a fluorogenic substrate available from Molecular Probes, Inc., Eugene, Oreg., and described in Kageyama et al., Antimicrob. Agents. Chemother., 37, 272 (1993), and a fluorogenic substrate available from Bachem California, Torrance, Calif., and described in Kageyama et al. (1993), supra. Percent inhibition is the percentage inhibition of an enzyme's activity by a given compound at a given concentration.

HIV-1 = conditions: cited from earlier work
[3] = Table I, unit inferred, read-out: Ki
[4] = comparison table, literature values by footnote

## Cc1c(O)cccc1C(=O)N[C@@H](Cc1ccccc1)[C@H](O)[C@H](O)[C@H](Cc1ccccc1)NC(=O)O[C@H]1CCOC1 [AN-76]
CEM cells
  IC50: > 50000 nM
[1]; Table I
  EC50: 7500 nM
[2]
  Ki: 2 nM

## Cc1c(O)cccc1C(=O)N[C@@H](Cc1ccccc1)[C@H](O)[C@H](O)[C@H](Cc1ccccc1)NC(=O)OC(C)(C)C [RS-198]
[2]; [3]
  Ki: 8.3 nM

## O=C(N[C@@H](Cc1ccccc1)[C@H](O)[C@H](O)[C@H](Cc1ccccc1)NC(=O)O[C@H]1CCOC1)O[C@H]1CCOC1 [RS-205]
CEM cells
  IC50: > 150000 nM
[1]; Table I
  EC50: 16000 nM
[2]
  Ki: 4.6 nM

## Cc1c(O)cccc1C(=O)N[C@@H](Cc1ccccc1)[C@@H](O)C[C@H](Cc1ccccc1)NC(=O)c1cccc(O)c1 [AN-89]
[2]; [3]
  Ki: 1.88 nM

## O=C(Nc1ccccc1C(=O)N[C@@H](Cc1ccccc1)C[C@H](O)[C@H](Cc1ccccc1)NC(=O)O[C@H]1CCOC1)OCc1ccccn1 [LL-101, (2S,3S,5S)-5-[N-[N-((2-pyridinylmethoxy)carbonyl)anthranilyl]amino]2-[N-((3-S-(tetrahydrofuranyl)oxy)carbonyl)amino]-1,6-diphenyl-3-hydroxy hexane]
[2]
  Ki: 0.042 ± 0.007 nM

## Cc1ccc(O)cc1C(=O)N[C@@H](Cc1ccccc1)C[C@H](O)[C@H](Cc1ccccc1)NC(=O)c1cc(O)ccc1C [RS-201]
[2]; [3]
  Ki: 6.6 nM

## Cc1c(O)cccc1C(=O)N[C@@H](Cc1ccccc1)[C@@H](O)[C@@H](O)[C@H](Cc1ccccc1)NC(=O)OC(C)(C)C [RS-199]
CEM cells
  IC50: > 50000 nM
[1]; Table I, read-out: EC50
  EC50: 1300 nM
[2]; [3]
  Ki: 0.66 nM

## CC(C)(C)NC(=O)[C@@H]1C[C@@H]2CCCC[C@@H]2CN1C[C@@H](O)[C@H](Cc1ccccc1)NC(=O)[C@H](CC(N)=O)NC(=O)c1ccc2ccccc2n1 [Sequinavir]
HIV-1; Example 13, literature values
  EC50: 10 nM
HIV-1; [4]
  EC50: 10 nM

## O=C(N[C@@H](Cc1ccccc1)[C@H](O)[C@H](O)[C@H](Cc1ccccc1)NC(=O)c1ccccc1O)c1ccccc1O [Diol-58]
[2]; Table I, 10μ
  Percent inhibition (Ki column): 32%

## O=C(N[C@@H](Cc1ccccc1)[C@H](O)[C@H](O)[C@H](Cc1ccccc1)NC(=O)c1ccccc1)c1ccccc1 [Diol-56]
[2]; [3]
  Ki: 40 nM

## O=C(N[C@@H](Cc1ccccc1)C[C@H](O)[C@H](Cc1ccccc1)NC(=O)O[C@H]1CCOC1)O[C@H]1CCOC1 [RS-194]
CEM cells
  IC50: > 50000 nM
[1]; Table I
  EC50: 6500 nM
[2]
  Ki: 1.68 nM

## Nc1ccccc1C(=O)N[C@@H](Cc1ccccc1)C[C@H](O)[C@H](Cc1ccccc1)NC(=O)c1ccccc1N [AN-72]
[2]; [3]
  Ki: 96 nM

## CC(C)(C)OC(=O)N[C@@H](Cc1ccccc1)[C@H](O)[C@H](O)[C@H](Cc1ccccc1)NC(=O)OC(C)(C)C [RS-196]
[2]; read-out: Ki
  Ki: 8.4 nM

## Cc1c(O)cccc1C(=O)N[C@@H](Cc1ccccc1)[C@@H](O)C[C@H](Cc1ccccc1)NC(=O)OCc1cccnc1 [AN-92, (2S,3S,5S)-2-[N-[(3-hydroxy-2-methylphenyl)carbonyl]amino]-5-[N-[(3-pyridinylmethoxy)carbonyl]amino]-1,6-diphenyl-3-hydroxy hexane]
CEM cells
  IC50: > 100000 nM
[1]; Table I, read-out: EC50
  EC50: 1300 nM
[2]; [3]
  Ki: 0.46 nM

## CC(C)C(NC(=O)OCc1ccccn1)C(=O)N[C@@H](Cc1ccccc1)[C@@H](O)[C@@H](O)[C@H](Cc1ccccc1)NC(=O)c1ccccc1NC(=O)OCc1ccccn1 (stereo partly drawn) [LL-73, (2S,3R,4S,5S)-2-[N-(N-(2-pyridinylmethoxy)valinyl)amino]-5-[N-[N-((2-pyridinylmethoxy)carbonyl)anthranilyl]amino]-3,4-dihydroxy-1,6-diphenyl hexane]
CEM cells
  IC50: 47000 nM
[1]; Table III
  EC50: 4 nM

## CC(C)CN(C[C@@H](O)[C@H](Cc1ccccc1)NC(=O)O[C@H]1CCOC1)S(=O)(=O)c1ccc(N)cc1 [VX-478]
HIV-1; comparison table, Kim et al., 1995, read-out: EC90 (EC50 column, footnote b)
  EC90: 40 nM

## CC(C)(C)OC(=O)N[C@@H](Cc1ccccc1)[C@@H](O)[C@@H](O)[C@H](Cc1ccccc1)NC(=O)c1ccccc1NC(=O)OCc1ccccn1 [DN-11]
CEM cells
  IC50: 21000 nM
[1]; Table II, read-out: EC50
  EC50: 490 nM
[2]; Example 2, read-out: Ki
  Ki: 0.4 nM
[2]; Table II, read-out: Ki
  Ki: 0.45 nM

## Cc1c(O)cccc1C(=O)N[C@@H](Cc1ccccc1)[C@@H](O)C[C@H](Cc1ccccc1)NC(=O)O[C@H]1CCOC1 [AN-98]
CEM cells
  IC50: > 100000 nM
[1]; Table I, read-out: EC50
  EC50: 630 to 1000 nM
[2]; [3]
  Ki: 0.32 nM

## Cc1c(O)cccc1C(=O)N[C@@H](Cc1ccccc1)[C@@H](O)C[C@H](Cc1ccccc1)NC(=O)c1ccc(O)cc1 [AN-88]
[2]; [3]
  Ki: 3.65 nM

## Cc1ccccc1C(=O)N[C@@H](Cc1ccccc1)[C@H](O)[C@H](O)[C@H](Cc1ccccc1)NC(=O)c1ccccc1C [Diol-57]
[2]; [3]
  Ki: 8 nM

## Cc1c(O)cccc1C(=O)N[C@@H](Cc1ccccc1)C[C@H](O)[C@H](Cc1ccccc1)NC(=O)c1ccccc1NC(=O)OCc1ccccn1 [LL-69]
[2]; Table II, read-out: Ki
  Ki: 0.68 nM

## Cc1c(O)cccc1C(=O)N[C@@H](Cc1ccccc1)[C@H](O)[C@H](O)[C@H](Cc1ccccc1)NC(=O)c1cccc(O)c1C [Diol-52]
CEM cells
  IC50: 25000 nM
[1]; Table I
  EC50: 900 nM
[2]; [3]
  Ki: 1.2 nM

## COc1ccc(S(=O)(=O)N[C@@H](Cc2ccccc2)C[C@H](O)[C@H](Cc2ccccc2)NC(=O)c2cccc(O)c2C)cc1 [AN-91]
[2]; Table I, unit printed in the line, read-out: Ki
  Ki: 1500 nM

## O=C(N[C@@H](Cc1ccccc1)[C@H](O)[C@H](O)[C@H](Cc1ccccc1)NC(=O)c1ccc(O)cc1)c1ccc(O)cc1 [Diol-51]
[2]; [3]
  Ki: 276 nM

## CC(C)c1nc(CN(C)C(=O)N[C@H](C(=O)N[C@@H](Cc2ccccc2)C[C@H](O)[C@H](Cc2ccccc2)NC(=O)OCc2cncs2)C(C)C)cs1 [Ritonavir]
HIV-1; Example 13, literature values
  EC50: 36 nM
HIV-1; [4]
  EC50: 36 nM

## Cc1c(O)cccc1C(=O)N[C@@H](Cc1ccccc1)[C@@H](O)C[C@H](Cc1ccccc1)NC(=O)c1cccc(N)c1 [AN-96, (2S,3S,5S)-2-[N-[(3-hydroxy-2-methylphenyl)carbonyl]amino]-5-[N-(3-aminophenyl)carbonyl]amino-1,6-diphenyl-3-hydroxy hexane]
CEM cells
  IC50: > 100000 nM
[1]; Table I
  EC50: 630 to 58000 nM
[2]
  Ki: 0.75 nM

## CC(C)(C)OC(=O)N[C@@H](Cc1ccccc1)[C@@H](O)[C@@H](O)[C@H](Cc1ccccc1)NC(=O)c1ccccc1NC(=O)OCc1ccccn1 [LL-70]
[2]; read-out: Ki
  Ki: 0.14 nM

## O=C(Nc1ccccc1C(=O)N[C@@H](Cc1ccccc1)[C@H](O)[C@H](O)[C@H](Cc1ccccc1)NC(=O)c1cccc(O)c1)OCc1ccccn1 [ND-4]
[2]; Table III, read-out: Ki
  Ki: 0.76 nM

## CC(C)(C)NC(=O)[C@@H]1CN(Cc2cccnc2)CCN1C[C@@H](O)C[C@@H](Cc1ccccc1)C(=O)N[C@H]1c2ccccc2C[C@H]1O [Indinavir]
HIV-1; [4]
  EC50: 50 nM

## O=C(Nc1ccccc1C(=O)N[C@@H](Cc1ccccc1)[C@@H](O)[C@@H](O)[C@H](Cc1ccccc1)NC(=O)c1cccc(O)c1)OCc1ccccn1 [DN-4]
CEM cells
  IC50: 9000 to 28000 nM
[1]; Table II, read-out: EC50
  EC50: 900 nM
[2]; Table II, read-out: Ki
  Ki: 1.77 nM

## Cc1c(O)cccc1C(=O)N[C@@H](Cc1ccccc1)[C@@H](O)[C@@H](O)[C@H](Cc1ccccc1)NC(=O)O[C@H]1CCOC1 [AN-78]
CEM cells
  IC50: > 50000 nM
[1]; Table I
  EC50: 21000 nM
[2]
  Ki: 1.43 nM

## CC(C)(C)OC(=O)N[C@@H](Cc1ccccc1)C[C@H](O)[C@H](Cc1ccccc1)NC(=O)c1ccccc1NC(=O)OCc1ccccn1 [AN-42]
CEM cells
  IC50: 23000 nM
[1]; Table II, read-out: EC50
  EC50: < 1000 nM
[2]; Table II, read-out: Ki
  Ki: 0.85 nM

## Cc1c(O)cccc1C(=O)N[C@@H](Cc1ccccc1)[C@@H](O)C[C@H](Cc1ccccc1)NC(=O)OC(C)(C)C [RS-208, (2S,3S,5S)-2-[N-[(3-hydroxy-2-methylphenyl)carbonyl]amino]-5-[N-(tert-butyloxycarbonyl)amino]-1,6-diphenyl-3-hydroxy hexane]
CEM cells
  IC50: 23000 nM
[1]; Table I, read-out: EC50
  EC50: 470 nM
[2]; [3]
  Ki: 0.213 nM

## O=C(Nc1ccccc1C(=O)N[C@@H](Cc1ccccc1)[C@@H](O)[C@@H](O)[C@H](Cc1ccccc1)NC(=O)c1cccc(O)c1)OCc1ccccc1 [DN-3]
[2]; Table II, read-out: Ki
  Ki: 5.9 nM

## CC(C)C(NC(=O)OCc1ccccn1)C(=O)N[C@@H](Cc1ccccc1)C[C@H](O)[C@H](Cc1ccccc1)NC(=O)c1ccccc1NC(=O)OCc1ccccn1 (some centres unmarked) [LL-68]
CEM cells
  IC50: 22000 nM
[1]; Table II, read-out: EC50
  EC50: 490 nM
[2]; Table II, read-out: Ki
  Ki: 0.034 nM

## CC(C)(C)NC(=O)N[C@@H](Cc1ccccc1)C[C@H](O)[C@H](Cc1ccccc1)NC(=O)c1ccccc1NC(=O)OCc1ccccn1 [AN-43]
CEM cells
  IC50: 33000 nM
[1]; Table II, read-out: EC50
  EC50: 1600 nM
[2]; Table II, read-out: Ki
  Ki: 1.05 nM

## O=C(N[C@@H](Cc1ccccc1)[C@H](O)[C@H](O)[C@H](Cc1ccccc1)NC(=O)c1cccc(O)c1)c1cccc(O)c1 [Diol-10]
[2]; Table I, unit not given
  Ki: 22/25

## Cc1c(O)cccc1C(=O)N[C@@H](Cc1ccccc1)[C@@H](O)C[C@H](Cc1ccccc1)NC(=O)c1ccccc1NC(=O)OCc1ccccn1 [LL-82, (2S,3S,5S)-2-[N-[(3-hydroxy-2-methylphenyl)carbonyl]amino]-5-[N-[N-[(2-pyridinylmethoxy)carbonyl]anthranilyl]amino]-1,6-diphenyl-3-hydroxy hexane]
CEM cells
  IC50: 40000 nM
[1]; Table III
  EC50: 33 nM
[2]
  Ki: 0.06 ± 0.018 nM

## Cc1c(O)cccc1C(=O)N[C@@H](Cc1ccccc1)C[C@H](O)[C@H](Cc1ccccc1)NC(=O)c1cccc(O)c1C [DD-8]
CEM cells
  IC50: 22000 nM
[1]; Table I, read-out: EC50
  EC50: 400 nM
[2]; read-out: Ki
  Ki: 0.8 nM
